Laboratory results published in patent US20220268782A1, “METHODS FOR PREDICTING AND TREATING CARDIAC DYSFUNCTION” (INSERM (INSTITUT NATIONAL DE LA SANTÉ EAT DE LA RECHERCHE …, priority 2019, published 2022).

System: C2C12 myoblasts
Experiment: PA catabolism and Nrf2-antioxidant pathway in C2C12 cells (Pah, tyrosine, 2-SC)
Format: cell-based
Conditions: data not shown
Method: Cells were washed briefly with ice-cold 1×PBS, scraped in 400 μL T-PER lysis buffer (ThermoFisher) supplemented with 0.1 mM phenylmethylsulphonyl fluoride (PMSF) and protease/phosphatase inhibitor cocktail tablet (ThermoFisher). Pulverised tissue samples (20-30 mg) were lysed in the same buffer accelerated by sonication and passing through a 21 G needle. To pellet any debris, lysates were centrifuged at 10,000 g for 10 minutes at 4° C., with the supernatant transferred to fresh tubes. Protein concentrations were determined with Bradford assay (Biorad) and lysates were diluted to equal concentration with lysis buffer. […]
C2C12 (ATCC® CRL-1772™) myoblasts maintained in DMEM supplemented with L-glutamine (2 mM), penicillin/streptomycin (1%) and 5% fetal bovine serum (FBS) were seeded either at a density of 5×10^4 cells (<50%) per well in 24-well plates or 10^4 cells in 4-well chamber slides. […] Cells were analysed for oxidative stress with MitoSOX™ (mitochondrial superoxide; 5 μM, ThermoFisher Scientific), CellROX™ (cytosolic superoxide; 5 μM, ThermoFisher Scientific), gene or protein expression, or various metabolites (see below).
Levels of reduced glutathione (GSH; ThermoFisher), phenylalanine (BioVision) and tyrosine (BioVision) were determined from cells or plasma, with respective agents/kits following the manufacturer's recommendations. […]

CC(O)C(O)C1CNc2nc(N)[nH]c(=O)c2N1 (centres unmarked) [BH4, 2-amino-6-(1,2-dihydroxypropyl)-5,6,7,8-tetrahydro-3H-pteridin-4-one]
succination-sensitive Nrf2-antioxidant pathway (BH4-dependent succination): activation
PA catabolism: cellular levels of Pah, tyrosine and 2-succinylcysteine (2-SC): increased
